The test system of one test is rat. Put plainly: Tactile allodynia produced by nitroglycerin (migraine model, rat). The format is in vivo. The settings on record: route sc, po, nitroglycerin 10 mg/kg ip, p < 0.05 vs vehicle.
A further test relates to mouse. Description: Tactile allodynia produced by intraplantar Freund's Complete Adjuvant, von Frey (mouse). It counts as in vivo. The settings on record: route sc, p < 0.05 vs vehicle. The protocol: Animals were acclimated to the vivarium for at least 48 hr prior to behavioral testing. Inflammation was induced for both rodent species with the administration of an intraplantar (subcutaneous injection into the plantar surface of the hind paw, i.pl.) injection of 0.10 ml Freund's Complete Adjuvant (FCA).
For mouse studies, the experiments were conducted 48 hours after FCA administration. Tactile allodynia was measured using a series of von Frey monofilaments. These filaments are bendable, plastic and intended to poke, not penetrate, the skin. Animals were placed in a Plexiglas chamber (approximately 10 cm×20 cm×25 cm) and allowed to habituate for 5-10 minutes. The chamber was positioned on top of a mesh screen so that von Frey monofilaments can be presented to the plantar surface of the hind paw that is inflamed. The measurement of tactile sensitivity for the injected hind paw is obtained using the up/down method (LaBuda and Little, 2005, J Neurosci. Methods, 144, 175) with […]. Each trial will start with a von Frey force of 0.6 grams delivered to the hind paw for approximately 1-2 seconds. If there was no withdrawal response, the next higher force was be delivered. If there was a response, the next lower force was delivered. This procedure was performed until no response was made at the highest force (2 grams) or until four stimuli are administered following the initial response. The 50% paw withdrawal threshold for the hind paw was be calculated using the following formula: [Xth]log=[vFi]log+ky where [vFr] is the force of the last von Frey used, k is the average interval (in log units) between the von Frey monofilaments, and y is a value that depends upon the pattern of withdrawal responses (Dixon, Annual Review Pharmacol Toxicol, 1980, 20, 441).

The subject of another test is adult male C57 mice. Description: Tail suspension test (TST). The settings on record: route sc, po; p < 0.05 compared to vehicle-treated mice. The format is in vivo, mouse. How it is done:
The experiments were performed using adult male C57 mice (6-10 weeks of age, 20-30 g, Hilltop Lab, PA). The mice were housed in standard rodent cages with stainless steel mesh wire bar lids in groups of 4 with controlled temperature and light cycle (6:00 a.m.-6:00 p.m.). Animals were given free access to food (Harlan Teklad Global 18% protein (Madison, Wis.)) and water during a minimum 2-day habituation period to the laboratory. Animals that were used in the study were handled, housed, and sacrificed (using compressed CO2) in accord with the current NIH guidelines regarding the use and care of laboratory animals, and all applicable local, state, and federal regulations and guidelines. Animals are identified by cage number, and by markings applied to the proximal tip of the tail using a permanent marker. Group sizes (n=8, and therefore 30-50 animals per study) provide reliable estimates of treatment effects, and this species and strain of mouse has been recognized as appropriate for pharmacology studies.
To measure efficacy of the compounds the compounds were tested using a tail suspension test. The tail suspension test is a behavioral test used to evaluate the efficacy of antidepressant drugs in rodents. In the TST, mice (n=8/group) were suspended by the tail with tape approximately 30-50 cm above the lab bench. Mice are positioned such that the base of their tail is perpendicular to the lab bench. Each mouse is given 1 trial that last 6 minutes. The total duration of immobility is calculated as the percentage of time that the mouse is immobile. The duration of immobility is the main parameter measured. This is calculated from the cumulated time during which the animals is absent of initiated movements including passive swaying. When antidepressant drugs are administered, immobility is decreased by a variety of classes of antidepressant drugs. One or more of the compounds show antidepressant activity.

For `COCCOc1cccc([C@@H]2CCN(CCn3cccc3)[C@H](C)[C@H]2COc2ccc3c(c2)C(=O)NC3)c1` (relative stereo) [Compound B1049, (−)-6-{[(trans, trans)-4-[3-(2-methoxyethoxy)phenyl]-2-methyl-1-[2-(1H-pyrrol-1-yl)ethyl]piperidin-3-yl]methoxy}-2,3-dihydro-1H-isoindol-1-one], the “Active Migraine Doses” value in the test with rat is no more than 30 mg/kg. In addition, the “Active CFA Dose” value in the test with mouse was no more than 10 mg/kg. The “Active TST Dose” value in the test on adult male C57 mice is no more than 30 mg/kg.

The values above are taken from patent US11465980B2, “6-membered aza-heterocyclic containing delta-opioid receptor modulating compounds, methods of using and making the same” (Trevena, Inc., priority 2015, dated 2022).
